Laboratory results as given in ChEMBL document CHEMBL5291721, “A preclinical secondary pharmacology resource illuminates target-adverse drug reaction associations of marketed drugs” (Nat Commun, 2023).

Experiments:
[1] = biological target: Prostaglandin G/H synthase 1 (Homo sapiens, UniProt P23219); format: functional
Thromboxane A2 receptor = biological target: T1, Thromboxane A2 receptor (Homo sapiens, UniProt P21731); format: functional, cell-based
T1 sequence (P21731 whole entry): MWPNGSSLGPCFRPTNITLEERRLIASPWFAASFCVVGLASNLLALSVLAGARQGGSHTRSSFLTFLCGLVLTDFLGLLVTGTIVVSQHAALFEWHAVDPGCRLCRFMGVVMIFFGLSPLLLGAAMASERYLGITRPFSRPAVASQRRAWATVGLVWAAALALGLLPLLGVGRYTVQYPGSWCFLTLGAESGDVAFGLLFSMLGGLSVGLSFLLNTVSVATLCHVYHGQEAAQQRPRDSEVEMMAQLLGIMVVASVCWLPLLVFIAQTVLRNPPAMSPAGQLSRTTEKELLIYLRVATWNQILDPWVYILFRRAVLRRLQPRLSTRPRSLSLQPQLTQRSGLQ

[2] = biological target: T2, Alpha-2A adrenergic receptor (Homo sapiens, UniProt P08913)
T2 sequence (P08913 whole entry): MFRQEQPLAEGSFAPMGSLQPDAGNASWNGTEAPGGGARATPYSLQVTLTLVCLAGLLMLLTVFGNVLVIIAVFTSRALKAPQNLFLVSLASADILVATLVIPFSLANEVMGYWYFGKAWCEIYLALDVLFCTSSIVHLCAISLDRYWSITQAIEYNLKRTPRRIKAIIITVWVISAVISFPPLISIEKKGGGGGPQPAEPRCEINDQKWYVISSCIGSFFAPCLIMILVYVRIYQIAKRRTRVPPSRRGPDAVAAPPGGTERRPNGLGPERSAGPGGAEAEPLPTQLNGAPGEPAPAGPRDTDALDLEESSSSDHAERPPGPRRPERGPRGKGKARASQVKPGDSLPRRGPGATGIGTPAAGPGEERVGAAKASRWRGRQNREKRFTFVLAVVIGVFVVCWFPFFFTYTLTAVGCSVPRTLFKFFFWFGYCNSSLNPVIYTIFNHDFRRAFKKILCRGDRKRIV

[3] = biological target: Gamma-aminobutyric acid receptor subunit alpha-1 (Rattus norvegicus, UniProt P62813)
Sequence of Gamma-aminobutyric acid receptor subunit alpha-1 (P62813 whole entry): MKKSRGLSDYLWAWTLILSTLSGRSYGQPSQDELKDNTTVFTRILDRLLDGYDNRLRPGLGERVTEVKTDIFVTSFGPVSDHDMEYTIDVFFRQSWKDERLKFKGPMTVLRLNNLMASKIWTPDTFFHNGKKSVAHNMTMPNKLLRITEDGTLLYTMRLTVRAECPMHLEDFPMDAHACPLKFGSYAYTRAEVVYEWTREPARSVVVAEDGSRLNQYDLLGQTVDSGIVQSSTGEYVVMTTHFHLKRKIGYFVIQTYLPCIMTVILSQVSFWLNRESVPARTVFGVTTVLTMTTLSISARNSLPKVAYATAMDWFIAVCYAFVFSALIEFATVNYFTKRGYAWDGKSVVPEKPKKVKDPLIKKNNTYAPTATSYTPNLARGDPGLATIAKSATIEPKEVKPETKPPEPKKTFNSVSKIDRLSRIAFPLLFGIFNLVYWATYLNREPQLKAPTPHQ

Histamine H3 receptor = Histamine H3 receptor (Homo sapiens, UniProt Q9Y5N1)
Sequence of Histamine H3 receptor (Q9Y5N1 whole entry): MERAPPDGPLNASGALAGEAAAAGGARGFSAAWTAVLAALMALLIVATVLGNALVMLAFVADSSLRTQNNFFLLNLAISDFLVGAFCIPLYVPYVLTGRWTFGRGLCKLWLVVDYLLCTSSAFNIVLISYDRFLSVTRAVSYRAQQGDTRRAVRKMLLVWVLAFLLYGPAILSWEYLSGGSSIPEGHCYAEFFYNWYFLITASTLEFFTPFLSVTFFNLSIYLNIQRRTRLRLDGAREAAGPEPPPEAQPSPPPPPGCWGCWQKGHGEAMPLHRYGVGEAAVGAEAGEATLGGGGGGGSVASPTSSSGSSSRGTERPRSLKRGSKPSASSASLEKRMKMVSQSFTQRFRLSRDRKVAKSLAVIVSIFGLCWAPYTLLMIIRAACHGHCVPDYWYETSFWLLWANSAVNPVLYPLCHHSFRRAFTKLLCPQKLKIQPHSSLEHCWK

Adenosine receptor A2a = Adenosine receptor A2a (Homo sapiens, UniProt P29274)
Sequence of Adenosine receptor A2a (P29274 whole entry): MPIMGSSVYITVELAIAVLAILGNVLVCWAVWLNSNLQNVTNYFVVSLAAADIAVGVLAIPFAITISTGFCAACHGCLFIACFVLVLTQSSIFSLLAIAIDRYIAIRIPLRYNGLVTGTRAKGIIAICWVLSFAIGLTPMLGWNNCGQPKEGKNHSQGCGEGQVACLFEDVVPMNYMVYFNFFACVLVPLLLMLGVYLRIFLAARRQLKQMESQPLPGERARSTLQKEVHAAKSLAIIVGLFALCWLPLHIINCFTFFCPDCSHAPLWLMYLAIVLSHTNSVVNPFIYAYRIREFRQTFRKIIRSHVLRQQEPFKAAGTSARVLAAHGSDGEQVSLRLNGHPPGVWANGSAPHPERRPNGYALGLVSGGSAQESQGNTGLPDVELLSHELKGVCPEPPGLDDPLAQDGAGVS

Progesterone receptor = biological target: T3, Progesterone receptor (Homo sapiens, UniProt P06401); format: functional
T3 sequence (P06401 whole entry): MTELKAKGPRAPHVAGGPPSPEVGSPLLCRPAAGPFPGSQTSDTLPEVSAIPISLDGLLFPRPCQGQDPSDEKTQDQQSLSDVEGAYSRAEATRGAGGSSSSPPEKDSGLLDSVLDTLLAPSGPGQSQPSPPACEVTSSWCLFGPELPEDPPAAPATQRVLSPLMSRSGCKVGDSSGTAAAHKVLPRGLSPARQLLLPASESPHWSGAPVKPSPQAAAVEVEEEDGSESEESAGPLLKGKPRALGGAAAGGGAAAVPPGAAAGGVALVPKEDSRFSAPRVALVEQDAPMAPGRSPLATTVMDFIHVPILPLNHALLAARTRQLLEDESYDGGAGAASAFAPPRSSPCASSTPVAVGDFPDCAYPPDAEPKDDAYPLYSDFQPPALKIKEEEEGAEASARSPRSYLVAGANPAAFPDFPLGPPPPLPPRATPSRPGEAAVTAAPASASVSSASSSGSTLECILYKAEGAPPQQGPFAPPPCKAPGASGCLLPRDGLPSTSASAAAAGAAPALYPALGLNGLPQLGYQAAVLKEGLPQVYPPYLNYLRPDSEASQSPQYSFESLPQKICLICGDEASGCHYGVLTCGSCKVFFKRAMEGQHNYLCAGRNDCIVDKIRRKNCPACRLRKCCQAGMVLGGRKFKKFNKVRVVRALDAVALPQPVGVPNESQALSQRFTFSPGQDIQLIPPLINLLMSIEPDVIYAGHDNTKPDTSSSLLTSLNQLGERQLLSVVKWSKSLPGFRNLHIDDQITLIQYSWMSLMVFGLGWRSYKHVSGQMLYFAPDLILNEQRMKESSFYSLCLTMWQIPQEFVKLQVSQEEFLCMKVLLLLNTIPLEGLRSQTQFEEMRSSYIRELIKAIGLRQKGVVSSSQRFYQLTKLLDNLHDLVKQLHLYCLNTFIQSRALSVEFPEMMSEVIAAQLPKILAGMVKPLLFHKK

B2 bradykinin receptor = biological target: T4, B2 bradykinin receptor (Homo sapiens, UniProt P30411)
T4 sequence (P30411 whole entry): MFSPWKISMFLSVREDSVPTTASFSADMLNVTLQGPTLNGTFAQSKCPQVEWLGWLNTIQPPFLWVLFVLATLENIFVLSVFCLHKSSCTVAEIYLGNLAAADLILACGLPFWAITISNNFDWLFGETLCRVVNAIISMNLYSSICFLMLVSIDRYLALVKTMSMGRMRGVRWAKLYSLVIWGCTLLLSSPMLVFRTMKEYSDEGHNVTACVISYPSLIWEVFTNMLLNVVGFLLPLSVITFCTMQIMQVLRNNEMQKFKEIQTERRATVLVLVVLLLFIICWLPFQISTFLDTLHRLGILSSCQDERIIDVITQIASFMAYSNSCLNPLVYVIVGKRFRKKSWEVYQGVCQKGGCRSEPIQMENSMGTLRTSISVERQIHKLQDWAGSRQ

Endothelin-1 receptor = biological target: T5, Endothelin-1 receptor (Homo sapiens, UniProt P25101)
T5 sequence (P25101 whole entry): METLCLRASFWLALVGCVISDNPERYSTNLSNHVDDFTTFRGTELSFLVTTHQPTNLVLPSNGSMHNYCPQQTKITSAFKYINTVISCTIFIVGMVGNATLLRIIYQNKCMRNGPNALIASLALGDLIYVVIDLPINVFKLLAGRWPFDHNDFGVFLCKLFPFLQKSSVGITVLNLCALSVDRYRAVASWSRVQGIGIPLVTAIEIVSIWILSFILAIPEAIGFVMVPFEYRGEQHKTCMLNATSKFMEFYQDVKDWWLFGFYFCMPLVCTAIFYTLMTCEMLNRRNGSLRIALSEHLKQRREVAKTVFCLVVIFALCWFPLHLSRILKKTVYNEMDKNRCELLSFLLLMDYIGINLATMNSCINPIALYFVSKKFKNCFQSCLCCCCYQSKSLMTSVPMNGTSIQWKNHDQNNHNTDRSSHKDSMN

[4] = biological target: 3',5'-cyclic-AMP phosphodiesterase 4D (Homo sapiens, UniProt Q08499); format: functional
Sequence of 3',5'-cyclic-AMP phosphodiesterase 4D (Q08499 whole entry): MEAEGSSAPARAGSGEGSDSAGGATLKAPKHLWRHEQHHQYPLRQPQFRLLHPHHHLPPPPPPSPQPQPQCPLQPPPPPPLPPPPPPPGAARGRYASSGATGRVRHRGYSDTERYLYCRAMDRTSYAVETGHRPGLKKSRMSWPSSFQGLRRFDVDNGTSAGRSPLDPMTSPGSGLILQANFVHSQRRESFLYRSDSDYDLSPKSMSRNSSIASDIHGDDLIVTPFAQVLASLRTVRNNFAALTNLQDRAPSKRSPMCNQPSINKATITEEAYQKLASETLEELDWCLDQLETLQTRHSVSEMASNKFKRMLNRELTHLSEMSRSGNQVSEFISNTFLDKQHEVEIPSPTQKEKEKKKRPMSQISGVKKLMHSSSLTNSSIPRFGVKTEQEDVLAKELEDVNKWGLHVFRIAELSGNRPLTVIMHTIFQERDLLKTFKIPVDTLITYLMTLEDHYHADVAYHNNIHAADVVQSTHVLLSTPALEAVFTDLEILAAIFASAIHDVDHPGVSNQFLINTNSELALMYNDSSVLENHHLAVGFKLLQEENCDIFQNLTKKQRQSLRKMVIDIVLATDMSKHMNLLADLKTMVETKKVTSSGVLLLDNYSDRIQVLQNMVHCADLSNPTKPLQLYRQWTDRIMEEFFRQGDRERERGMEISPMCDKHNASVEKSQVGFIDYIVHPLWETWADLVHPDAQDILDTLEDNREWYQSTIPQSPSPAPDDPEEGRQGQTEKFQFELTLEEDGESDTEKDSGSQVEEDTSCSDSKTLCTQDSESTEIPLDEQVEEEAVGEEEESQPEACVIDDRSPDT
Note: assay procedure not described here.

Sequence of Prostaglandin G/H synthase 1 (P23219 whole entry): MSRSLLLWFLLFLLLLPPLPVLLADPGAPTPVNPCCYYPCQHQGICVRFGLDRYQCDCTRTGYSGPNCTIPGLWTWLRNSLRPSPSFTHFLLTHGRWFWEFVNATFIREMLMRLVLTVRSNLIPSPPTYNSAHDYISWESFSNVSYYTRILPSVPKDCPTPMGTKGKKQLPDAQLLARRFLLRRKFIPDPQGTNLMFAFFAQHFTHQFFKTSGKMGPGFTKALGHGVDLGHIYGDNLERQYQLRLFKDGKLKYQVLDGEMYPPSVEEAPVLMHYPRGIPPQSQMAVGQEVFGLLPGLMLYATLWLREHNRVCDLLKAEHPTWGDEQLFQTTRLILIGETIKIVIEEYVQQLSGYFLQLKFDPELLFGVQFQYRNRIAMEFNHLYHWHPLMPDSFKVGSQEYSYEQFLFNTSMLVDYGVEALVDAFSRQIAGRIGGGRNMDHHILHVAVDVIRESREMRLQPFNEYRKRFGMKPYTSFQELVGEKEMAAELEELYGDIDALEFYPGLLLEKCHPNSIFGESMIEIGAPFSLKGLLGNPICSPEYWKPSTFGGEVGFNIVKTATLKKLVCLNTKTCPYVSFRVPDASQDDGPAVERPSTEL

SMILES	AC50 [1] [µM]	AC50 (Thromboxane A2 receptor) [µM]	AC50 [2] [µM]	AC50 [3] [µM]	AC50 (Histamine H3 receptor) [µM]	AC50 (Adenosine receptor A2a) [µM]	AC50 (Progesterone receptor) [µM]	AC50 (B2 bradykinin receptor) [µM]	AC50 (Endothelin-1 receptor) [µM]	AC50 [4] [µM]
CN1CCC[C@@H]1Cc1c[nH]c2ccc(CCS(=O)(=O)c3ccccc3)cc12	> 30	> 30	7.51	> 30	–	–	–	–	–	–
O=C(Nc1cccc2c(=O)cc(-c3nnn[nH]3)oc12)c1ccc(OCCCCc2ccccc2)cc1	26.7	> 30	> 30	> 30	–	–	–	–	–	–
NC(=O)c1nc(F)c[nH]c1=O	> 30	> 30	> 30	> 30	–	–	–	–	–	–
CC(/C=C1\SC(=S)N(CC(=O)O)C1=O)=C\c1ccccc1	–	–	–	–	> 30	26	> 30	> 10	> 30	–
CC1(C)S[C@@H]2[C@H](NC(=O)[C@H](N)c3ccc(O)cc3)C(=O)N2[C@H]1C(=O)O [AMOXICILLIN]	–	–	–	–	> 30	> 30	> 30	> 30	> 30	> 30
CNCC[C@@H](Oc1ccccc1C)c1ccccc1 [ATOMOXETINE]	–	–	–	–	30	> 30	> 30	> 30	> 30	> 30
CCc1oc2ccccc2c1C(=O)c1cc(Br)c(O)c(Br)c1 [BENZBROMARONE]	–	–	–	–	> 30	> 30	> 30	> 30	> 30	–
COC(=O)[C@H](c1ccccc1Cl)N1CCc2sccc2C1 [CLOPIDOGREL]	–	–	–	–	> 30	> 30	> 30	> 30	> 30	> 30
C#Cc1cccc(Nc2ncnc3cc(OCCOC)c(OCCOC)cc23)c1 [ERLOTINIB]	0.0388	> 30	> 30	–	> 30	18	> 30	–	> 30	> 30
Nc1nc(O)c2ncn(COC(CO)CO)c2n1 [GANCICLOVIR]	–	–	–	–	> 30	> 30	> 30	> 30	> 30	> 30
C[C@H]1Oc2cc(cnc2N)-c2c(nn(C)c2C#N)CN(C)C(=O)c2ccc(F)cc21 [LORLATINIB]	–	–	–	–	> 30	> 30	> 30	–	> 30	16
CC(=O)/N=c1/sc(S(N)(=O)=O)nn1C [METHAZOLAMIDE]	> 30	> 30	> 30	–	–	> 10	> 10	> 10	–	> 30
CC[C@@H](CO)NC(=O)[C@@H]1C=C2c3cccc4[nH]cc(c34)C[C@H]2N(C)C1 [METHYLERGONOVINE]	–	–	–	–	> 30	> 30	> 30	> 30	> 30	> 30
CC(=O)Oc1ccccc1C(=O)Nc1ncc([N+](=O)[O-])s1 [NITAZOXANIDE]	0.0114	> 30	> 30	–	10	8.8	> 30	4.9	12	> 30
CNCCC=C1c2ccccc2CCc2ccccc21 [NORTRIPTYLINE]	–	–	–	–	> 30	> 30	> 30	> 30	> 30	7.5
COc1ccc(Cc2nccc3cc(OC)c(OC)cc23)cc1OC [PAPAVERINE]	–	–	–	–	> 30	> 30	> 30	> 30	> 30	–
O=C1NC(=O)C(c2ccccc2)(c2ccccc2)N1 [PHENYTOIN]	–	–	–	–	> 30	> 30	> 30	> 30	> 30	> 30
CC(C)C[C@H](CN)CC(=O)O [PREGABALIN]	–	–	–	–	> 30	> 30	> 30	> 30	> 30	> 30
CCOc1cc(CC(=O)N[C@@H](CC(C)C)c2ccccc2N2CCCCC2)ccc1C(=O)O [REPAGLINIDE]	–	–	–	–	> 30	> 30	> 30	–	> 30	9.6
O=C(Nc1c(Cl)cncc1Cl)c1ccc(OC(F)F)c(OCC2CC2)c1 [ROFLUMILAST]	–	–	–	–	> 30	> 30	> 30	> 30	> 30	–
CCCN(CCC)CCc1cccc2c1CC(=O)N2 [ROPINIROLE]	–	–	–	–	9.25	> 30	> 30	> 30	> 30	> 30
CCCN(CCc1cccs1)[C@H]1CCc2c(O)cccc2C1 [ROTIGOTINE]	–	–	–	–	> 30	> 30	> 30	–	> 30	> 30
CC[C@H]1OC(=O)[C@H](C)[C@@H](O[C@H]2C[C@@](C)(OC)[C@@H](O)[C@H](C)O2)[C@H](C)[C@@H](O[C@@H]2O[C@H](C)C[C@H](N(C)C)[C@H]2O)[C@](C)(O)C[C@@H](C)/C(=N\OCOCCOC)[C@H](C)[C@@H](O)[C@]1(C)O [ROXITHROMYCIN]	–	–	–	–	> 30	> 30	> 30	–	> 30	> 30
CC(C)N(CCCCOCC(=O)NS(C)(=O)=O)c1cnc(-c2ccccc2)c(-c2ccccc2)n1 [SELEXIPAG]	–	–	–	–	> 30	> 30	> 30	> 10	> 30	4.81
Cc1cc(CC(=O)O)n(C)c1C(=O)c1ccc(Cl)cc1 [ZOMEPIRAC]	–	–	–	–	> 30	> 30	> 30	> 30	> 30	> 30
